Reference: ChEMBL document CHEMBL1141638, “Influence of sulfur oxidation state and steric bulk upon trifluoromethyl ketone (TFK) binding kinetics to carboxylesterases and fatty acid amide hydrolase (FAAH)” (Bioorg Med Chem, 2008)

Columns and labels:
[1] = biological target: T1, Fatty-acid amide hydrolase 1 (Homo sapiens, UniProt O00519); assay: Inhibition of human recombinant FAAH after 15 mins
T1 sequence (O00519 whole entry): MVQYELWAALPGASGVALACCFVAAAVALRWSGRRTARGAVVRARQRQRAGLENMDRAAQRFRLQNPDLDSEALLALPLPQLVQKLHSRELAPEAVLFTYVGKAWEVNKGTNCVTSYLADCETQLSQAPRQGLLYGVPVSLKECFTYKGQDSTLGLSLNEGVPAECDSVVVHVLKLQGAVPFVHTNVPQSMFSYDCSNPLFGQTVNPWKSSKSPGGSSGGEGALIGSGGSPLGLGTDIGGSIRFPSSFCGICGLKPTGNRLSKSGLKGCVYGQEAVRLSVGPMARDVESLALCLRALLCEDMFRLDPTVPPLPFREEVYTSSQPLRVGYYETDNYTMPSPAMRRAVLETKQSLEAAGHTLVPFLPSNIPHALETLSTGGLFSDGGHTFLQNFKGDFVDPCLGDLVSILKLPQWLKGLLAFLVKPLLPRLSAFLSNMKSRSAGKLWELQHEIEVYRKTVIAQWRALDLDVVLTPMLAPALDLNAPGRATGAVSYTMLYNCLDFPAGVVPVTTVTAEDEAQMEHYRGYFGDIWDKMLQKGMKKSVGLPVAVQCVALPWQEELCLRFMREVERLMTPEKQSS

Liver carboxylesterase [2] = biological target: T2, Liver carboxylesterase (Sus scrofa, UniProt Q29550); assay: Inhibition of pig liver carboxylesterase after 15 mins
T2 sequence (Q29550 whole entry): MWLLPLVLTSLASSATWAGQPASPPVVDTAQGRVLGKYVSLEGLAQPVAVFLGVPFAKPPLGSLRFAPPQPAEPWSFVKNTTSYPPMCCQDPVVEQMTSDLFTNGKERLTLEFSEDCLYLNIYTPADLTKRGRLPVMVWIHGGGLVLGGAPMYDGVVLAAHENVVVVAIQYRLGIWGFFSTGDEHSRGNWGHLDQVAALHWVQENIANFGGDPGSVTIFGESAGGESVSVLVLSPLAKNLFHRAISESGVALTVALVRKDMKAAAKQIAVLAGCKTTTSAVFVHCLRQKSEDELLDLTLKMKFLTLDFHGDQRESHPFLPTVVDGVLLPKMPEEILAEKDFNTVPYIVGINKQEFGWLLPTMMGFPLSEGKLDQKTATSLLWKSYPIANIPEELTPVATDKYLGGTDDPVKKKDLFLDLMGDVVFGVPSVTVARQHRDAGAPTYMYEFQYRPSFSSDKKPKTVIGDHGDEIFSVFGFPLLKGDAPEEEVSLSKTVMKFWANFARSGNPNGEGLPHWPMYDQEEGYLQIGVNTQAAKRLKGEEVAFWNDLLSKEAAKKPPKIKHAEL

Liver carboxylesterase [3] = biological target: T2, Liver carboxylesterase; assay: Inhibition of pig liver carboxylesterase after 5 mins
[4] = biological target: T1, Fatty-acid amide hydrolase 1; assay: Inhibition of human recombinant FAAH after 5 mins
[5] = Inhibition of rabbit liver carboxylesterase after 5 mins; set-up: species or system Oryctolagus cuniculus
[6] = Inhibition of rabbit liver carboxylesterase after 15 mins; set-up: species or system Oryctolagus cuniculus
Liver carboxylesterase 1 [7] = biological target: T3, Liver carboxylesterase 1 (Homo sapiens, UniProt P23141); assay: Inhibition of human recombinant carboxylesterase 1 after 15 mins
T3 sequence (P23141 whole entry): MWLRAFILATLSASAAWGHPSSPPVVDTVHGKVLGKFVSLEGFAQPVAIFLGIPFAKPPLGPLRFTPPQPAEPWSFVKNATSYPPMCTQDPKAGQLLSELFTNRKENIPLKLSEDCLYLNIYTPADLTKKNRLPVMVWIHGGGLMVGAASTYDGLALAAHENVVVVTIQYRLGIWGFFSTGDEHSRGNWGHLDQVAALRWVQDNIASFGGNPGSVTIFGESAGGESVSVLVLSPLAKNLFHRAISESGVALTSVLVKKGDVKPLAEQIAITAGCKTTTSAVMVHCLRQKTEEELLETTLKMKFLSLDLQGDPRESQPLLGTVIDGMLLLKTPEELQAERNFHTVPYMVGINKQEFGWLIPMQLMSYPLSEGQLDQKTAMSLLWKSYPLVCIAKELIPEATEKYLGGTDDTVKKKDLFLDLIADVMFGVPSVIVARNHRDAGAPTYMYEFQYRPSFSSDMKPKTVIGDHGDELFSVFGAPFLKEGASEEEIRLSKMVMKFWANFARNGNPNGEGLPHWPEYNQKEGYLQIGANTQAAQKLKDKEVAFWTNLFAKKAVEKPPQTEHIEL

Liver carboxylesterase 1 [8] = biological target: T3, Liver carboxylesterase 1; assay: Inhibition of human recombinant carboxylesterase 1 after 5 mins
[9] = biological target: T4, Juvenile hormone esterase (Manduca sexta, UniProt Q9GPG0); assay: Inhibition of Manduca sexta juvenile hormone esterase
T4 sequence (Q9GPG0 whole entry): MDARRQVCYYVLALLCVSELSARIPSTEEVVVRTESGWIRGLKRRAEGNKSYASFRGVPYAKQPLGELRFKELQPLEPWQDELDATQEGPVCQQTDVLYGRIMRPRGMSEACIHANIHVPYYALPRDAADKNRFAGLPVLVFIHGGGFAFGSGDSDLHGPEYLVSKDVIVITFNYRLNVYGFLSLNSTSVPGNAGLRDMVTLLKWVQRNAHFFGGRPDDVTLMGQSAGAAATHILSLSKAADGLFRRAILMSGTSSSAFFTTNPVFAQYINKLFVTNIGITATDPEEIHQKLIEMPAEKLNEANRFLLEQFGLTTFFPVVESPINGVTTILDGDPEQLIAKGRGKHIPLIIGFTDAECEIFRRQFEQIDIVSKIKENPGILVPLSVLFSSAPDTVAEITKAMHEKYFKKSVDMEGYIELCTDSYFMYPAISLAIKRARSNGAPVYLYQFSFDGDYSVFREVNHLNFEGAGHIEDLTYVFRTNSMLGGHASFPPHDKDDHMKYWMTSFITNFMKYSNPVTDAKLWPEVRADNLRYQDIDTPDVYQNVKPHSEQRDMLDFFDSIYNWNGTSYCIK

[10] = Inhibition of Manduca sexta juvenile hormone esterase […] mutant

Row | IC50 [1] | IC50 (Liver carboxylesterase [2]) | IC50 (Liver carboxylesterase [3]) | IC50 [4] | IC50 [5] | IC50 [6] | IC50 (Liver carboxylesterase 1 [7]) | IC50 (Liver carboxylesterase 1 [8]) | Compound | IC50 [9] | IC50 [10]
1 | > 40000 nM | 33 nM | 280 nM | > 40000 nM |  |  |  |  | CCCCCC[S+]([O-])CC(=O)C(F)(F)F (stereo unspecified) |  | 
2 | > 40000 nM | 100 nM | 470 nM | > 40000 nM |  |  |  |  | CCCCCCS(=O)(=O)CC(=O)C(F)(F)F |  | 
3 | 280 nM | 46 nM | 37 nM | 250 nM |  |  |  |  | CCCCCCCCCCCCS(=O)(=O)CC(=O)C(F)(F)F |  | 
4 | 1350 nM | 3.2 nM | 5.5 nM | 760 nM |  |  |  |  | CCCCCCCCCC[S+]([O-])CC(=O)C(F)(F)F (stereo unspecified) |  | 
5 | 13900 nM | 23 nM | 200 nM | 6500 nM | 16 nM | 5 nM | 5.5 nM | 30 nM | CCCCCCCC[S+]([O-])CC(=O)C(F)(F)F (stereo unspecified) |  | 
6 | 89 nM | 5.3 nM | 12 nM | 84 nM |  |  |  |  | CCCCCCCCCCCCSCC(=O)C(F)(F)F |  | 
7 | 3000 nM | 28 nM | 63 nM | 2200 nM |  |  |  |  | CCCCCCCCCCS(=O)(=O)CC(=O)C(F)(F)F |  | 
8 | 600 nM | 8.6 nM | 12 nM | 440 nM |  |  |  |  | CCCCCCCCCCCC[S+]([O-])CC(=O)C(F)(F)F (stereo unspecified) |  | 
9 | 22500 nM | 460 nM | 830 nM | 14800 nM | 55 nM | 35 nM | 5.4 nM | 18 nM | CCCCCCCCS(=O)(=O)CC(=O)C(F)(F)F |  | 
10 | > 40000 nM | 4.5 nM | 20 nM | > 40000 nM |  |  |  |  | CCCCSCC(=O)C(F)(F)F |  | 
11 | > 40000 nM | 270 nM | 970 nM | > 40000 nM |  |  |  |  | CCCC[S+]([O-])CC(=O)C(F)(F)F (stereo unspecified) |  | 
12 | 2500 nM | 1.8 nM | 7.5 nM | 1950 nM |  |  |  |  | CCCCCCSCC(=O)C(F)(F)F |  | 
13 | 1800 nM | 9.3 nM | 25 nM | 1250 nM | 42 nM | 14 nM | 30 nM | 65 nM | CCCCCCCCCCC(=O)C(F)(F)F | 530 nM | 1600 nM
14 | > 40000 nM | 830 nM | 370 nM | > 40000 nM | 19 nM | 29 nM |  |  | O=C(C(=O)c1ccccc1)c1ccccc1 [BENZIL] |  | 

Row | Compound | IC50 [1] | IC50 (Liver carboxylesterase [2]) | IC50 (Liver carboxylesterase [3]) | IC50 [4] | IC50 [5] | IC50 [6] | IC50 (Liver carboxylesterase 1 [7]) | IC50 (Liver carboxylesterase 1 [8]) | IC50 [9] | IC50 [10]
15 | CCCCCCCCCCSCC(=O)C(F)(F)F | 170 nM | 1.3 nM | 2.2 nM | 120 nM |  |  |  |  |  | 
16 | CCCCCCCCSCC(=O)C(F)(F)F | 300 nM | 2.4 nM | 5.6 nM | 230 nM | 6.7 nM | 1.9 nM | 13 nM | 24 nM | 22 nM | 330 nM
